Measured values: article PMC6493727, “FluoroCellTrack: An algorithm for automated analysis of high-throughput droplet microfluidic data” (PLoS ONE, 2019)

System: OPM-2 cells
Assay: Dose response of single OPM-2 cells to Bortezomib, live/dead staining in a droplet trapping array
Assay type: cell-based
Conditions: for Dead Cells / Live Cells: Calcein AM/EthD-1 staining; for Dead Cells / Live Cells / Overlapping Cells: FluoroCellTrack automated count, n=787 droplets
Description: First, a mask was generated by detecting differently colored cells from the input image, Fig 3A. This mask (Fig 3B) was overlapped with the input image and was subjected to edge detection, dilation and erosion to yield Fig 3C, which was then segmented through random walker algorithm to detect and distinguish attached cells. Random walker segmentation algorithm was used over traditional watershed algorithm due to its highly precise probabilistic interpretation of local maxima (Fig 3D). The distinguished contours from this image were then filtered for area, where cellular area equal to or greater than 130 pixels were outlined and labeled as shown in Fig 3E. 130 was selected as the thresholding value due to the mean cellular area being ~140 pixels. This step was essential to exclude debris to eliminate false positives. However, in case of co-culture platforms, where primary cells are of the same size as that of the secondary cells, or in systems where the debris is of the same size as that of the cells, specific cellular or organelle staining can be used to distinguish these features and the extensive palette used in computer vision aids in easy detection of such features. […] For instance, similar features with slight deviations in shape, size and orientation were easily detected by the droplet/contour detection steps of FluoroCellTrack but would need a repository of many templates while using the template matching feature, showing that the latter can be highly uneconomical. The broad palette of colors in computer vision can be exploited here to detect any fluorescent cell and as an example here, the contour detection step was implemented to quantify actual cellular viability data as shown in Fig 4. Lower [B, G, R]: [0, 51, 0] and upper [B, G, R]: [153, 255, 153] boundaries were given for live cells and, dead cells were identified with the lower and upper color boundaries at; [153, 153, 255] while overlapping cells were identified with lower and upper color boundaries of [0, 51, 51]; [153, 255, 255]. Cells with overlapping signals in both the green and red filter sets represent cells with compromised plasma membranes (indicative of a dead cell), but with remaining esterase activity to react with the Calcein AM. These cells were noted as ‘dying’ cells to distinguish them from the clean live and dead signals using the other contour boundaries. The contours with specific colors were detected from the input images, where the positively detected live, dead and overlapping cells with an area equal to or greater than 130 pixels were outlined with distinct colors: live cells in red, dead cells in blue and overlapping cells in purple (Fig 4). The outlined cell-center map was overlaid with the droplet center map and scanned to fit within 25<R<50-micron values (denoted by white arrows), to account for single/multiple cell encapsulation information as shown in the output data of Fig 4. This step was essential to calculate the single-cell encapsulation efficiency and to eliminate cells that were freely floating in the device, thus including cells that were only inside the droplets. Additionally, the user can easily eliminate the droplet detection step to use this contour detection as a stand-alone platform (similar to ImageJ and Cell Profiler) to detect and quantify properties of fluorescent cells from other microfluidic or non-microfluidic applications. The advantage of FluoroCellTrack over current software tools like ImageJ and Cell Profiler lies in the fact that the former can be employed in non-droplet microfluidic platforms in addition to droplet microfluidics, but the latter cannot be used to quantify high-throughput droplet microfluidic data.
An important application of any automated platform is to count cells and sort them based on their fluorescent response. As an example, the dose-dependent single cell response of OPM-2 cells to a clinical inhibitor, Bortezomib was observed. […]

## CC(C)C[C@H](NC(=O)[C@H](Cc1ccccc1)NC(=O)c1cnccn1)B(O)O [BTZ, Bortezomib]
1 nM BTZ, Day 1 (24 h)
  Dead Cells: 5
  Live Cells: 311
1 nM BTZ, Day 1 (24 h), overlapping = dying cells (green and red signal)
  Overlapping Cells: 28
1 nM BTZ, Day 2 (48 h)
  Dead Cells: 10
  Live Cells: 53
1 nM BTZ, Day 2 (48 h), overlapping = dying cells
  Overlapping Cells: 45
1 nM BTZ, Day 3 (72 h)
  Dead Cells: 53
  Live Cells: 140
1 nM BTZ, Day 3 (72 h), overlapping = dying cells
  Overlapping Cells: 206
1 nM, 10 nM and 100 nM, 24 h, 48 h and 72 h incubation
  viability of single OPM-2 cells: decrease in viability at increasing concentrations and incubation times
10 nM BTZ, Day 1 (24 h)
  Dead Cells: 5
  Live Cells: 49
10 nM BTZ, Day 1 (24 h), overlapping = dying cells
  Overlapping Cells: 38
10 nM BTZ, Day 2 (48 h)
  Dead Cells: 67
  Live Cells: 15
10 nM BTZ, Day 2 (48 h), overlapping = dying cells
  Overlapping Cells: 113
10 nM BTZ, Day 3 (72 h)
  Dead Cells: 92
  Live Cells: 0
10 nM BTZ, Day 3 (72 h), overlapping = dying cells
  Overlapping Cells: 107
100 nM BTZ, Day 1 (24 h)
  Dead Cells: 75
  Live Cells: 0
100 nM BTZ, Day 1 (24 h), overlapping = dying cells
  Overlapping Cells: 100
100 nM BTZ, Day 2 (48 h)
  Dead Cells: 320
  Live Cells: 3
100 nM BTZ, Day 2 (48 h), overlapping = dying cells
  Overlapping Cells: 149
100 nM BTZ, Day 3 (72 h)
  Dead Cells: 108
  Live Cells: 0
100 nM BTZ, Day 3 (72 h), overlapping = dying cells
  Overlapping Cells: 17
